The values that follow come from patent US20250171404A1, “PCNA INHIBITORS AND USES THEREOF” (CITY OF HOPE, priority 2022, published 2025).

Data set [1] concerns SK-N-DZ neuroblastoma cells. Description: Apoptosis (sub-G1, TUNEL assay), cancer cells. The class given is cell-based, human. The note with it: 500 nM, 24 h. Here is the method: (§1) FIGS. 3A-3D. Therapeutic properties of AOH1996. FIG. 3A: Normal cells (7SM0032) or cancer cells (SH-SY5Y and SK-N-BE(2)c) cells were fixed, stained with PI, and analyzed by flow cytometry following treatment with 500 nM AOH1996 for the indicated time. FIG. 3B: SK-N-DZ neuroblastoma cells and nonmalignant 7SM0032 stem cells were incubated with 500 nM AOH1996 for 24 h. Then, after being fixed on slides, cell apoptosis were analyzed by a TUNEL assay. Left: TMR fluorophore attached to the free ends of DNA indicates cells undergoing apoptosis. DAPI stained nuclei also shown. Right: Average abundance ±S.D. of apoptotic 7SM0032 (black histogram) and SK-N-DZ (grey histogram) cells relative to the total number of cells are shown in 5 randomly selected fields. […] The relative number of colonies determined in triplicates for each treatment condition were averaged and graphed ±SDs (*, P<0.01). […] Cell growth was measured as the percentage of cell confluence by imaging every 6 h for a total of 48 h.
Cell apoptosis was measured on a chamber slide at a seeding density of 1×10^5/mL. After treatment with 500 nM AOH1996 for 24 h, cells were fixed and analyzed by a TUNEL assay using the TMR red in situ cell death detection kit (Roche Diagnostics).

Data set [2] can be described thus: Oral pharmacokinetic study in mice. The class given is in vivo, ES1^e/SCID mice. The protocol:
FIGS. 4A-4H. Pharmacokinetics and anti-tumor growth activity of AOH1996 in vivo. FIG. 4A: After oral administration, the plasma concentrations of AOH1996 from three male and three female ES1^e/SCID mice at the indicated time points were averaged and graphed ±S.D. The inset contains PK parameters determined by a standard noncompartmental method. FIG. 4B: A similar PK study of AOH1996 was performed in dogs. FIGS. 4C-4E: Mice bearing the xenograft tumors of neuroblastoma (FIG. 4C: SK-N-BE(2)c), breast cancer (FIG. 4D: MDA-MB-468), and small-cell lung cancer (FIG. 4E: H82) were given vehicle only (black) or 40 mg/kg of AOH1996 (grey) twice daily immediately after the first measurement. Tumor sizes were measured by a dial caliper each week. Tumor volumes (0.4×L×W^2) were averaged and graphed ±S.E. (*, P<0.01). FIG. 4F: Animal body weight was monitored throughout the studies as an indicator of toxicity. Shown is a typical study results from the study of the SK-N-BE(2)c tumor model described in (FIG. 4C). FIG. 4G: The levels of phosphor-Chk1 (pChk1) and γH2A.X in SK-N-BE(2)c derived tumor samples were analyzed by IHC. Shown are representative images taken from tumors treated by vehicle only or by 40 mg/kg AOH1996. FIG. 4H: ES1^e/SCID mice bearing SK-N-AS derived xenograft tumors were treated with either 80 mg/kg of AOH1996 (black, n=7) for 8 d beginning 8 d after tumor implantation, 15 mg/kg of CPT-11 (n=8) for 3 d beginning 12 d after tumor implantation, or both agents (combination, n=8) under the same dosages and schedules as they were dosed alone. Mice implanted with the same tumor and left untreated were used as control (n=8). Shown are the survival graphs. The p values determined by the Log-rank (Mantel-Cox) test between combination treatment and each of the control groups are p=0.0003 (Combination vs. NoRx), p=0.005 (Combination vs. AOH1996 alone), and p=0.024 (Combination vs. CPT-11 alone).
The improved stability of AOH1996 (FIGS. 12A-12E) translated into a significant benefit in the pharmacokinetics (PK).
Pharmacokinetic (PK) study in animals. An oral dosing solution was prepared by dissolving AOH1996 (40 mg) in a mixture of Kolliphor EL (840 mg) and Poloxamer P124 (120 mg). For the mouse study, blood samples were collected from ES1^e/SCID mice (3 male and 3 female) per dosing group by cardiac puncture at 10, 20, and 30 min and 1, 2, 4, 6, and 24 h after dosing. For the dog study, blood samples were collected from 3 male beagle dogs per dosing group by venipuncture of peripheral veins at 5, 15, and 30 min and 1, 2, 4, 8, 12, and 24 h after dosing. Following removal of blood cells, plasma concentration of AOH1996 was determined by LC-MS/MS as described (Gu et al., 2018). Oral PK was determined using standard non-compartmental methods.

Data set [3] can be described thus: Compound metabolism in liver microsome. The class given is in vitro ADME, human. The note with it: compared with AOH1160. The protocol: FIGS. 12A-12E. AOH1996 metabolism and in vivo pharmacokinetics. FIG. 12A: Illustration of AOH1160 degradation by carboxyl esterase-mediated cleavage or by hydroxylation. FIG. 12B: Chromatogram of liver microsome reaction mixtures of AOH1160 and AOH1996. The metabolites shown in FIG. 12A are indicated above their corresponding peaks. FIG. 12C: An aliquot of the liver microsome reaction mixture of AOH1996 was taken after various incubation times in the presence or absence of NADPH as the energy source. AOH1996 concentrations, determined by LC/MS-MS, as a percentage of the input concentration were graphed. FIG. 12D: After oral administration, the plasma concentrations of AOH1996 from three male and three female ES1e/SCID mice at the indicated time points were averaged and graphed ±S.D. The inset contains PK parameters determined by a standard noncompartmental method. FIG. 12E: A similar PK study of AOH1996 was performed in dogs.
Measurement of compound metabolism in liver microsome. AOH1160 analogs were incubated in human liver microsomes in the presence or absence of NADPH at 37° C. An aliquot of the reaction mixture was taken after various incubation times. Compound concentration was determined by liquid chromatography-tandem mass spectrometry (LC-MS/MS) as previously described (Gu et al., 2018).
Background: Liver microsomes are vesicles of endoplasmic reticulum, rich in cytochrome P450 enzymes.

A further data set has as its system SH-SY5Y and SK-N-BE(2)c. In words: Cell cycle analysis (PI, flow cytometry), cancer cells. The class given is cell-based, human. The note with it: 500 nM. The protocol: as §1, with “fields. FIG. 3C: Human SK-N-DZ neuroblastoma cells were treated with or without the indicated concentrations of cisplatin in the absence or presence of 500 nM of AOH1996 for 18 hours.” for “fields.”
Cell Cycle Analysis. […] PI fluorescence intensity of the cells was measured by flow cytometry and the data was analyzed using the FlowJo program.

By half-life is commonly meant the time needed for the level to fall by half in the phase considered. For the compound `COc1cccc(Oc2ccccc2NC(=O)CNC(=O)c2cccc3ccccc23)c1` [AOH1996, N-(2-((2-(3-methoxyphenoxy)phenyl)amino)-2-oxoethyl)-1-naphthamide], the “apoptosis (sub-G1 population, TUNEL positivity)” value in data set [1] is reported as “induced apoptosis”. Also, in data set [2] (40 mg/kg, mice), the half-life stood at 4.33 h, the “increase in area under curve (AUC) vs AOH1160” value is on record as approximately 4%, the “increase in half-life vs AOH1160” value is on record as approximately 27% and the “increase in peak concentration (Cmax) vs AOH1160” value is given as approximately 40%. In addition, in data set [2] (animals, data not shown), the absorption into circulation is listed as approximately 90%. For the same compound, the metabolic stability result in data set [3] was “metabolically more stable than AOH1160”. In the data set with SH-SY5Y and SK-N-BE(2)c, the “change in cell-cycle profile” value is on record as “G2/M and/or S phase arrest in cancer cells”.
